Assay results published in ChEMBL document CHEMBL5257068, “Synthesis and biological evaluation of DIDS analogues as efficient inhibitors of RAD51 involved in homologous recombination” (Bioorg Med Chem Lett, 2023).

Legend:
DU-145 [1] = assay: Cytotoxicity against human DU-145 cells overexpressing RAD51 assessed as cell viability at 50 uM incubated for 72 hrs by MTT assay relative to control; type: functional; conditions: read-out: Activity
DU-145 [2] = assay: Cytotoxicity against human DU-145 cells overexpressing RAD51 assessed as cell viability at 1 uM incubated for 72 hrs by MTT assay relative to control; type: functional; conditions: read-out: Activity
[3] = target: T1, DNA repair protein RAD51 homolog 1 (Homo sapiens, UniProt Q06609); assay: Inhibition of RAD51 (unknown origin) using labeled 100-ss DNA as substrate assessed as reduction in DNA D-loop formation by [gamma-32P]ATP based scintillation counter method
T1 sequence (Q06609 whole entry): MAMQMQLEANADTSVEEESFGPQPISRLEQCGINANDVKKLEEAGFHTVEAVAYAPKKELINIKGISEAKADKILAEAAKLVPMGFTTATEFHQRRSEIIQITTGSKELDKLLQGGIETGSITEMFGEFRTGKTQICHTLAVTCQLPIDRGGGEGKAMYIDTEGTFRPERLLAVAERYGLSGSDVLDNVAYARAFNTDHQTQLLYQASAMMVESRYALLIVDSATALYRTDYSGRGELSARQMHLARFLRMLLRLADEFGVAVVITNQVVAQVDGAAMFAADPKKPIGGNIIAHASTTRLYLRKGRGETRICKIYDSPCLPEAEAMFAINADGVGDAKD

[4] = target: T1, DNA repair protein RAD51 homolog 1; assay: Inhibition of RAD51 (unknown origin) assessed as reduction in novel 58/33-dsDNA formation incubated for 1 hr by electrophoresis based DNA strand exchange assay
DU-145 [5] = assay: Cytotoxicity against human DU-145 cells overexpressing RAD51 assessed as cell viability at 10 uM incubated for 72 hrs by MTT assay relative to control; type: functional; conditions: read-out: Activity
[6] = target: T1, DNA repair protein RAD51 homolog 1; assay: Inhibition of RAD51 (unknown origin) mediated homologous recombination
[7] = target: T1, DNA repair protein RAD51 homolog 1; assay: Inhibition of wild type human RAD51 expressed in Escherichia coli BL21-DE3 using 100 bp ssDNA probe as substrate assessed as prevention of D-loop formation preincubated for 5 mins followed by plasmid DNA addition and measured after 15 mins by agarose gel electrophoresis method

Row | SMILES | IC50 [3] [µM] | IC50 [4] [µM] | viability at 50 µM (DU-145 [1]) [%] | viability at 1 µM (DU-145 [2]) [%] | viability at 10 µM (DU-145 [5]) [%] | other results
1 | O=C(Nc1ccc(/C=C/c2ccc(NC(=O)Oc3ccccc3)cc2S(=O)(=O)O)c(S(=O)(=O)O)c1)Oc1ccccc1 | 2.3 | 3.8 | 87 | 100 | 100 | 
2 | N#Cc1ccc(/C=C/c2ccc(C#N)cc2S(=O)(=O)O)c(S(=O)(=O)O)c1 | 4.9 | 1.3 | 100 | 99 | 94 | 
3 | N#Cc1ccc(CCc2ccc(C#N)cc2S(=O)(=O)O)c(S(=O)(=O)O)c1 | > 50 |  |  |  |  | 
4 | O=C1C(Cl)=C(N2CCOCC2)C(=O)N1c1ccc(Cl)c(Cl)c1 |  |  |  |  |  | IC50 [6]: 20 µM
5 | Cc1ccc(S(=O)(=O)Nc2ccc(/C=C/c3ccc(NS(=O)(=O)c4ccc(C)cc4)cc3S(=O)(=O)O)c(S(=O)(=O)O)c2)cc1 |  |  | 100 | 100 | 100 | 
6 | O=c1c2ccccc2nc(/C=C/c2cccnc2)n1Cc1ccccc1 |  |  | 9 | 95 | 79 | 
7 | O=[N+]([O-])c1ccc(/C=C/c2ccc([N+](=O)[O-])cc2S(=O)(=O)O)c(S(=O)(=O)O)c1 | > 50 |  |  |  |  | 
8 | CC(C)COC(=O)Nc1ccc(/C=C/c2ccc(NC(=O)OCC(C)C)cc2S(=O)(=O)O)c(S(=O)(=O)O)c1 | > 50 |  |  |  |  | 
9 | CC(=O)Nc1ccc(/C=C/c2ccc(N=C=S)cc2S(=O)(=O)O)c(S(=O)(=O)O)c1 | 29 |  |  |  |  | IC50 [7]: 29 µM
10 | O=S(=O)(O)c1cc(N=C=S)ccc1/C=C/c1ccc(N=C=S)cc1S(=O)(=O)O | 0.9 | 0.75 | 83 | 90 | 87 | IC50 [7]: 0.9 µM
11 | N#Cc1ccc(/C=C/c2ccc([N+](=O)[O-])cc2S(=O)(=O)O)c(S(=O)(=O)O)c1 | 20 |  | 88 | 90 | 85 | 
12 | [N-]=[N+]=Nc1ccc(/C=C/c2ccc(N=[N+]=[N-])cc2)cc1 | > 50 |  |  |  |  | 
13 | O=S(=O)(O)c1cc(I)ccc1/C=C/c1ccc(I)cc1S(=O)(=O)O |  | 17.5 | 84 | 91 | 89 | 
14 | [N-]=[N+]=Nc1ccc(/C=C/c2ccc(N=[N+]=[N-])cc2S(=O)(=O)O)c(S(=O)(=O)O)c1 | 21.5 | 10 | 93 | 87 | 94 | IC50 [7]: 44.3 µM

More lines, main results first:

Row | IC50 [3] [µM] | IC50 [4] [µM] | SMILES | viability at 50 µM (DU-145 [1]) [%] | viability at 1 µM (DU-145 [2]) [%] | viability at 10 µM (DU-145 [5]) [%] | other results
15 | > 50 |  | COS(=O)(=O)c1cc(NC(=O)Oc2ccccc2)ccc1/C=C/c1ccc(NC(=O)Oc2ccccc2)cc1S(=O)(=O)OC |  |  |  | 
16 |  | > 50 | O=C(Nc1ccc(/C=C/c2ccc(NC(=O)c3ccccc3)cc2S(=O)(=O)O)c(S(=O)(=O)O)c1)c1ccccc1 | 100 | 100 | 100 | 
17 |  | > 50 | CCOC(=O)Nc1ccc(/C=C/c2ccc(NC(=O)OCC)cc2S(=O)(=O)O)c(S(=O)(=O)O)c1 |  |  |  | 
18 | > 50 |  | O=S(=O)(Nc1ccc(/C=C/c2ccc(NS(=O)(=O)c3ccccc3)cc2)cc1)c1ccccc1 |  |  |  | 
19 | 30 |  | O=C(Nc1ccc(CCc2ccc(NC(=O)Oc3ccccc3)cc2S(=O)(=O)O)c(S(=O)(=O)O)c1)Oc1ccccc1 |  |  |  | 
20 | 30.5 |  | O=C(Nc1ccc(/C=C/c2ccc(NC(=O)Oc3ccccc3)cc2)cc1)Oc1ccccc1 |  |  |  | 
21 |  | > 50 | CC(=O)Nc1ccc(/C=C/c2ccc(NC(C)=O)cc2S(=O)(=O)O)c(S(=O)(=O)O)c1 |  |  |  | 
22 | > 50 |  | O=[N+]([O-])c1ccc(S(=O)(=O)Nc2ccc(/C=C/c3ccc(NS(=O)(=O)c4ccc([N+](=O)[O-])cc4)cc3S(=O)(=O)O)c(S(=O)(=O)O)c2)cc1 |  |  |  | 
23 |  | > 50 | CCC(=O)Nc1ccc(/C=C/c2ccc(NC(=O)CC)cc2S(=O)(=O)O)c(S(=O)(=O)O)c1 |  |  |  | 
24 | 6.5 | 3 | COc1ccc(C(=O)Nc2ccc(/C=C/c3ccc(NC(=O)c4ccc(OC)cc4)cc3S(=O)(=O)O)c(S(=O)(=O)O)c2)cc1 | 100 |  |  | 
